The source of these data is publication PMC12445744, “Molecular docking to homology models of human and Trypanosoma brucei ERK8 that identified ortholog-specific inhibitors” (PLOS Neglected Tropical Diseases, 2025).

The target of assay [1] is T1, TbERK8 (Trypanosoma brucei brucei, UniProt Q38B88).
T1 sequence (Q38B88 1-442): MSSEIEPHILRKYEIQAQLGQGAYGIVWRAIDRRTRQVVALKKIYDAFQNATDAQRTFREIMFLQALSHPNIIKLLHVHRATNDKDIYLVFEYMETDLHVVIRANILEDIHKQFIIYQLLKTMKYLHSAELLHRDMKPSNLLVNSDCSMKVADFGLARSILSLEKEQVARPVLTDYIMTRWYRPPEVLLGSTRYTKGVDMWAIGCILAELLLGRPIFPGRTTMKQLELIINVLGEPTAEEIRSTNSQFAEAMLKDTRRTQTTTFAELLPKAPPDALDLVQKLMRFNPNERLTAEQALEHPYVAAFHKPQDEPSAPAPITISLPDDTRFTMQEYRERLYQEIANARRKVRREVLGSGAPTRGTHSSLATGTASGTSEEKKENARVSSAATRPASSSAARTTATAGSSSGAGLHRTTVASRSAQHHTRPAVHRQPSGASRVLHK
The settings on record: cited from earlier work.

For assay [2], the target named is T2, HsERK8 (Homo sapiens, UniProt Q8TD08).
T2 construct: plasmid pGEX2T expressing the full-length hERK8 coding region; made in house; host or cells: Escherichia coli Rosetta 2 (DE3)
T2 sequence (Q8TD08 1-544): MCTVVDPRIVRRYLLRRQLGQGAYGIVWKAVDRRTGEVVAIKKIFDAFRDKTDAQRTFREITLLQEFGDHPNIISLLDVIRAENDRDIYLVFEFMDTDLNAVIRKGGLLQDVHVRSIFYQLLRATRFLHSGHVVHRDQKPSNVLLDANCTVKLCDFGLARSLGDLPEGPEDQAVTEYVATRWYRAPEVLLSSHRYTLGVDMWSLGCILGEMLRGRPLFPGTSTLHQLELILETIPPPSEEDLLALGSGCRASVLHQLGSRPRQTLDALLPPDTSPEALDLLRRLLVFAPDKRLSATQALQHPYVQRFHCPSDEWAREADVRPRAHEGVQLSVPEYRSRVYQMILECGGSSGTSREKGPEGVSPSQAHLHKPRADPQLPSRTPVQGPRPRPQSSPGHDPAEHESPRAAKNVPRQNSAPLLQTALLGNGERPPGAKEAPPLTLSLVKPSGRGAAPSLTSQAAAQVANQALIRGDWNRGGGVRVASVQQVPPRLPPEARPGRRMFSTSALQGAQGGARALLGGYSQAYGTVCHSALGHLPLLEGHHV
The note with it: cited from earlier work.

For a further assay, the system named is T. brucei. The settings on record: cited from earlier work.
Assay [3] deals with T1, TbERK8. In words: Luciferase-based kinase inhibition assay (ATP luminescence), GST-tagged TbERK8 with MBP substrate. The class given is biochemical. The settings on record: for raw luminescence, TbERK8: sheet Kinase_glo_080924_IFPS (2), replicate wells. Details: raw luminescence, TbERK8: unit of the concentration uncertain. The protocol: (§1) Escherichia coli strain Rosetta 2 (DE3) (Cat# 71397, MilliporeSigma, Burlington, MA) was transformed with the plasmid pGEX2T expressing the full-length hERK8 coding region or pGSTAg expressing the full-length TbERK8 coding region. One liter of Terrific Broth media containing 100 μg/ml Ampicillin and 30 μg/ml chloramphenicol in 2 L baffled flasks was inoculated with 25 mL from an overnight culture of Rosetta 2 strains harboring either the pGEX2T-hERK8 or pGSTAg-TbERK8 plasmid. Two baffled flasks were inoculated with each overnight strain and incubated and shaken at 175 RPM in a New Brunswick Innova 44R Incubator Shaker (Fischer Scientific, Pittsburgh, PA) at 37 °C until the cultures reached an O.D.600 of 0.94. Once the cultures in the flask reached the target O.D.600, the flasks were cooled to 4 °C in an ice water bath. The cooled cultures were induced by adding isopropyl β-D-1-thiogalactopyranoside (IPTG) to a final concentration of 0.1 mM and shaken at 16 °C for 16 hours at 175 RPM in a New Brunswick Innova 44R Incubator Shaker (Fischer Scientific, Pittsburgh, PA). On the next day, the cultures were pelleted by centrifugation at 9000 xg in a JLA 10.500 rotor (Beckman Coulter; Brea, CA), and the media was decanted. The pellet was flash-frozen in liquid nitrogen and then thawed on ice. The thawed pellet was resuspended in lysis buffer (25 mM Tris, 75 mM NaCl, 0.5% TritonX-100 and 0.5% Nonidet P-40, 1 mM phenylmethanesulfonyl fluoride, 1 mM benzamidine⋅HCl) and lysed using a microfluidizer M-110P from Microfluidics (Westwood, MA). The crude lysates were clarified by centrifugation at 140,000 xg in a 45Ti rotor (Beckman Coulter, Brea, CA) for 30 min at 4°C. The clarified lysate was loaded by gravity to a 3 mL glutathione agarose resin column (Cat# G-250–10, GOLDBIO, St. Louis, MO) formed in a 1.5 × 20 cm glass chromatography column (Cat# 7371522, Bio-Rad, Hercules, CA). The column was washed with 30 mL of PBS (pH 7.4) containing 1 mM DTT. Elution buffer (50 mM Tris buffer pH 8.0 containing 10 mM reduced glutathione and 1 mM DTT was added to the washed column), and 1 mL fractions were collected by gravity and examined by SDS-PAGE stained by Coomassie dye. Peak fractions pooled from the elution were dialyzed (4x 1:500 dilutions) in kinase buffer (30 mM Tris, pH 7.4, 10 mM MgCl2, 1 mM DTT, 5% glycerol).
(§2) We performed kinase assays in buffer K (30 mM Tris pH 7.4, 10 mM MgCl2, 1 mM DTT, 5% glycerol, 50 μM ATP, and 0.1 mg/mL BSA) at 30°C for 30 min in 30 μL reactions. GST-tagged HsERK8 and TbERK8 were tested using myelin basic protein (MBP) (Cat# 13–110, Millipore, Darmstadt, Germany) as the substrate at increasing concentrations to determine the optimal activity for the assay. ATP consumption was determined by adding equal volumes of the kinase assay reagent (Promega, Cat# V5601, Madison, WI) following the manufacturer’s protocol. Luminescence was measured using the microplate reader (SpectraMax L, Molecular Devices, Sunnyvale, CA).
(§3) These compounds were screened for kinase inhibition utilizing a luciferase-based assay. Briefly, the kinases were tested using MBP as the substrate at a 14-fold molar excess in 384-well flat-bottom white plates (BRANDTECH Scientific, Cat# 781681, Essex, CT). These compounds were tested at concentrations ranging from […] to 150 nM. The kinases plus MBP substrate reactions were incubated with each inhibitor for 30 minutes at 30°C. Equal volumes of kinase assay mix Promega (Cat# V5601, Madison, WI) were added to the kinase/inhibitor reaction after 30 minutes, following the manufacturer’s protocol. ATP luminescence was measured using a microplate reader (SpectraMax L, Molecular Devices, Sunnyvale, CA). IC50 values were calculated from assays done in triplicate by fitting the data using Prism 8.1.1 (GraphPad).

Assay [4] deals with T2, HsERK8. In words: Luciferase-based kinase inhibition assay (ATP luminescence), GST-tagged HsERK8 with MBP substrate. The note with it: for raw luminescence, HsERK8: sheet Kinase_glo_080924_IFPS (2), replicate wells. The class given is biochemical. The protocol:
as §1, §2, §3

[5] abbreviates: at any tested concentration (10 mM to 150 nM).

Structures are written as SMILES. Several values for one entry are separate records, joined by “and”; a condition that tells them apart may be missing. Equal entries are not always repeated.

As to `Cc1cc(Nc2nc(N[C@@H](C)c3ccc(F)cc3)c(C#N)cc2F)n[nH]1` [AZ960, (S)-5-Fluoro-2-(1-(4-fluorophenyl)ethylamino)-6-(5-methyl-1H-pyrazol-3-ylamino)nicotinonitrile], the 50% inhibitory concentration (IC50) (as a rule, the concentration that inhibits the measured activity by half) at TbERK8 [1] (read-out: IC50 for TbERK8 (published)) was 120 nM. Moreover, on HsERK8 [2], the “inhibition of HsERK8” value is recorded as “inhibiting HsERK8 poorly”. Besides, the “effect on T. brucei parasite” value in the assay on T. brucei is “killed the parasite”.

As for `Cc1ncc(-c2ccnc(Nc3ccc(S(C)(=O)=O)cc3)n2)n1C(C)C` [AZD5438], at TbERK8 [1], the “inhibition of TbERK8” value is listed as “potent inhibitor”. Besides, at HsERK8 [2], the “inhibition of HsERK8” value is on record as “potent inhibitor”.

Turning to `C[C@]12CCC(=O)C=C1CC[C@H]1[C@@H]3CC[C@](O)(C(=O)CO)[C@@]3(C)C[C@H](O)[C@@]12F` [Fludrocortisone], the “raw luminescence, TbERK8” value is 1859.59 RLU and 2054.98 RLU and 1825.9 RLU at TbERK8 [3] (0.00015 (unit uncertain) compound); 756.861 RLU and 669.272 RLU and 696.222 RLU on TbERK8 [3] (0.00061 (unit uncertain) compound); 839.958 RLU and 756.861 RLU and 772.582 RLU on TbERK8 [3] (0.00244 (unit uncertain) compound); 471.634 RLU and 512.06 RLU and 359.34 RLU at TbERK8 [3] (0.00977 (unit uncertain) compound); 947.761 RLU and 727.664 RLU and 806.27 RLU on TbERK8 [3] (0.03906 (unit uncertain) compound); 579.437 RLU and 552.486 RLU and 756.861 RLU on TbERK8 [3] (0.15625 (unit uncertain) compound). Also, the “raw luminescence, TbERK8” value on TbERK8 [3] (0.62500 (unit uncertain) compound) is 736.648 RLU and 693.976 RLU and 673.763 RLU; on TbERK8 [3] (2.50000 (unit uncertain) compound) it was 1122.94 RLU and 1073.53 RLU and 1107.22 RLU; on TbERK8 [3] (10.00000 (unit uncertain) compound, signal = ATP left) it was 4505.23 RLU and 4303.1 RLU and 4100.97 RLU. Further, the “inhibition of kinase activity of TbERK8” value against TbERK8 [3] (setting [5]) is given as “did not inhibit”. Besides, the “raw luminescence, HsERK8” value is 3640.57 RLU and 3844.94 RLU and 3813.5 RLU on HsERK8 [4] (0.00015 mM compound); 4118.94 RLU and 4395.18 RLU and 4579.35 RLU on HsERK8 [4] (0.00061 mM compound); 4696.13 RLU and 4963.39 RLU and 5212.68 RLU at HsERK8 [4] (0.00244 mM compound); 4772.49 RLU and 5547.32 RLU and 5378.88 RLU on HsERK8 [4] (0.00977 mM compound); 6005.48 RLU and 7079.01 RLU and 7018.37 RLU at HsERK8 [4] (0.03906 mM compound); 6266 RLU and 7171.09 RLU and 7216.01 RLU at HsERK8 [4] (0.15625 mM compound). For the same compound, the “raw luminescence, HsERK8” value was 7168.84 RLU and 8628.66 RLU and 8372.63 RLU at HsERK8 [4] (0.62500 mM compound); 6252.52 RLU and 7644.97 RLU and 7582.08 RLU on HsERK8 [4] (2.50000 mM compound); 11251.8 RLU and 11631.4 RLU and 11334.9 RLU at HsERK8 [4] (10.00000 mM compound, signal = ATP left). The “inhibition of kinase activity of HsERK8” value against HsERK8 [4] (setting [5]) is given as “did not inhibit”.

Consider `Cn1cc(C2=C(c3cn(CCCSC(=N)N)c4ccccc34)C(=O)NC2=O)c2ccccc21` [Ro318220, 3-{3-[4-(1-Methyl-1H-indol-3-yl)-2,5-dioxo-2,5-dihydro-1H-pyrrol-3-yl]-1H-indol-1-yl}propyl carbamimidothioate], for which, on HsERK8 [2] (HsERK8 over TbERK8), the “greater potency inhibiting HsERK8 than TbERK8” value is on record as 100–300 fold. For the same compound, the IC50 at HsERK8 [2] (read-out: IC50 for HsERK8 (reported)) was 5 to 10 nM.
